19 molecules from PubChem BioAssay (NCI) can be followed below.

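These data come from cells grown in 96-well plates and exposed to compound for 48 hours at five concentrations. TGI: concentration producing complete growth inhibition.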

What all share (assay): NCI-60 cell line screen, 48 h
Test [1] deals with UACC-62 melanoma.
Test [2] concerns M14 melanoma.
Test [3] concerns TK-10 renal.
The subject of test [4] is UACC-257 melanoma.
Test [5] deals with SNB-19 CNS.
The test system of test [6] is NCI-H23 lung.
The subject of test [7] is EKVX NSCLC.
Test [8] has as its system MDA-MB-231 breast.
In test [9] the test system is A549 NSCLC.
The subject of test [10] is SF-268 CNS.
Test [11] has as its system HCT-15 colon.
The subject of test [12] is CAKI-1 renal.
Test [13] concerns MCF7 breast.
Test [14] concerns DU-145 prostate.
Test [15] concerns OVCAR-4 ovarian.
For test [16], the system named is ACHN renal.
Test [17] deals with KM12 colon.
Test [18] relates to SK-OV-3 ovarian.

With `O=CC1C(Cl)=Nc2nc3ccccc3n2C1c1ccccc1` (centres undefined), the TGI was 50 µM in test [1]; 64.6 µM in [2]; 51.4 µM in [3]; 58.2 µM in test [4]; more than 100 µM in test [5]; 56.6 µM in test [6]. The TGI in [7] turned out to be 64.6 µM; in test [8], 38.6 µM; in test [9], 76.6 µM; in test [10], 37.2 µM; in test [11] it was 30.9 µM; in test [12], 46.6 µM. For the same molecule, the TGI in test [13] came to 42.7 µM; in [14], 31.4 µM; in test [15], 44 µM; in [16], 33.3 µM; in test [17], 51.4 µM.
Turning to `CC(C)(C)[C@H]1CO[C@]2(c3ccccc3)[C@@H]3C[C@@H]3C(=O)N12`, the TGI in [1], in [2], in [3], in test [4], in test [5] and in test [6] was more than 100 µM each time. Moreover, the TGI in test [7], in test [9], in test [10], in test [11], in test [12] and in test [15] was more than 100 µM throughout. Further, the TGI in [18], in test [16] and in test [17] was more than 100 µM in each case.
Turning to `CCN(CC)C(=S)SCC(=O)Nc1nc2c(s1)CCCC2`, the TGI in test [2], in test [3], in test [4], in [5], in test [6] and in test [9] was more than 100 µM each time. In addition, the TGI in test [10], in test [11], in test [15], in test [18], in test [16] and in test [17] was more than 100 µM throughout.
`CSc1ccc(NC(=O)C2c3[nH]c4ccccc4c3C3CCC(C(C)(C)C)CC3C2C(=O)O)cc1` (centres undefined): the TGI was 67.1 µM in test [1]; 44.6 µM in [2]; more than 100 µM in test [4]; 80.2 µM in test [5]; 58.7 µM in test [6]; 85.3 µM in [7]. The TGI in test [9] is 30.9 µM; in test [10], 47 µM; in test [11], more than 100 µM; in [15], 50.1 µM; in test [18], 37.3 µM; in test [16] it was 32 µM.
As for `C=CCCCN1CCCC(C)C1=S` (centres undefined), the TGI in test [1], in test [2], in test [3], in test [4], in test [5] and in test [6] was more than 100 µM throughout. The TGI in test [7], in test [9], in test [10], in [11], in test [15] and in test [18] was more than 100 µM each time. The TGI in test [16] and in test [17] was more than 100 µM throughout.
For the molecule `C[n+]1c2ccccc2c(CNCC(=O)O)c2ccccc21`, the TGI in test [1] is 3.83 µM; in test [2] it was 18.4 µM; in test [3], 3.06 µM; in [4] it was 23.8 µM; in test [5], 22.2 µM; in test [6], 24.8 µM. The TGI is 12.3 µM in [7]; 13.1 µM in test [9]; 1.9 µM in test [10]; 4.94 µM in test [11]; 1.84 µM in [12]; 25.2 µM in test [15]. The TGI in test [18] came out at 15.7 µM; in [16] it was 2.59 µM; in [17], 11 µM.
Regarding `CC1=NN2C(c3ccc([N+](=O)[O-])cc3)=CSC2=NC(C)(C)C1`, the TGI in test [1], in test [2], in test [3], in test [4], in test [5] and in test [6] was more than 100 µM throughout. Further, the TGI in test [7], in [9], in [10], in [11], in [15] and in test [18] was more than 100 µM in each case. Moreover, the TGI in test [16] and in test [17] was more than 100 µM in each case.
As to `ClCC[N-]CC[N-]CCCl.ClCC[N-]CC[N-]CCCl.[O-][Cl+3]([O-])([O-])O.[Zn+2]`, the TGI in test [1] is 66.9 µM; in test [2] it was 38.5 µM; in [3], more than 71.1 µM; in test [4], 63.2 µM; in [5], more than 100 µM; in [6] it was more than 60.3 µM. For the same molecule, the TGI in test [7] is more than 100 µM; in test [9], more than 100 µM; in test [10] it was 56.6 µM; in [11], more than 100 µM; in test [12], 39.7 µM; in test [15], 41.8 µM. Also, the TGI was more than 100 µM in [18], 49.6 µM in [16] and more than 100 µM in [17].
Turning to `Cc1c2ccncc2c(C)c2c1[nH]c1ccc(Oc3ccccc3)cc12`, the TGI in test [1] is 3.16 µM; in [3], 22.9 µM; in test [4] it was 4.33 µM; in [5], 46.1 µM; in test [6], more than 53.1 µM; in test [7], more than 100 µM. The TGI was 4.8 µM in [9]; more than 28.4 µM in test [10]; more than 100 µM in test [12]; 10.5 µM in [15]; 15.9 µM in test [18]; 17.3 µM in [16]. Also, the TGI in test [17] stood at 9.49 µM.
For the molecule `COC(=O)CC(C(C(=O)OC)C(=O)OC)N1C(=O)OC(c2ccccc2)C1c1ccccc1` (centres undefined), the TGI in test [1], in [2], in test [3], in test [4], in test [5] and in test [6] was more than 100 µM in each case. The TGI in test [7] is more than 100 µM; in [9], more than 100 µM; in test [10], more than 100 µM; in test [11], more than 100 µM; in [12], 39 µM; in test [15] it was more than 100 µM. Further, the TGI in [18], in test [16] and in test [17] was more than 100 µM each time.
As to `COC(=O)c1c(-c2cc(OC)c(OC)c(OC)c2)oc2ccccc2c1=O`, the TGI in test [1], in [2], in [3], in test [4], in [5] and in [6] was more than 100 µM in each case. Moreover, the TGI in test [7], in test [9], in [11], in test [12], in [15] and in test [18] was more than 100 µM throughout. Moreover, the TGI in test [16] and in test [17] was more than 100 µM each time.
On to `Nc1nc(N)c2ncn(CCOC(c3ccccc3)P(=O)(O)O)c2n1` (centres undefined), for which the TGI in [1], in test [3], in test [4], in test [5], in test [6] and in [7] was more than 100 µM in each case. Moreover, the TGI in test [9], in test [10], in test [11], in test [12], in test [18] and in test [16] was more than 100 µM in each case. The molecule further registered a TGI in test [17] of more than 100 µM.
With `CC(C)OC(=O)[C@H]1ON2O[C@H](O[C@@H]3CCCC[C@H]3c3ccccc3)C([Si](C)(C)c3ccccc3)[C@H]3OC(=O)[C@@H]1C32` (some centres undefined), the TGI in test [1], in [2], in test [3], in test [4], in test [5] and in test [6] was more than 100 µM each time. The TGI in [7], in test [8], in test [9], in test [10], in test [11] and in test [12] was more than 100 µM throughout. Besides, the TGI in test [13], in test [14], in test [18], in [16] and in test [17] was more than 100 µM in each case.
For the molecule `N#Cc1ccc(Oc2ccccc2)cc1C#N`, the TGI in [1], in [2], in [3], in test [4], in test [5] and in test [6] was more than 100 µM each time. Moreover, the TGI in [7] is more than 100 µM; in test [9], more than 100 µM; in [10] it was more than 100 µM; in test [11], 43.3 µM; in test [12], more than 100 µM; in test [15], more than 100 µM. In addition, the TGI in test [18], in test [16] and in test [17] was more than 100 µM each time.
`C[P+](c1ccccc1)(c1ccc(Cl)cc1)c1ccc(Cl)cc1`: the TGI in [1] is 28.3 µM; in test [2] it was 34.4 µM; in test [3], 36.9 µM; in [4] it was 32.6 µM; in test [5], 59.1 µM; in test [6] it was 31.6 µM. Moreover, the TGI is 99.3 µM in test [7]; 82 µM in test [8]; more than 100 µM in test [9]; more than 100 µM in [10]; more than 100 µM in test [11]; more than 100 µM in test [13]. Moreover, the TGI in test [14] is 94.6 µM; in test [15] it was 45.2 µM; in test [18] it was more than 100 µM; in test [16], more than 100 µM.
Take `CC(C)OC/N=C(/N)NC#N`: the TGI in test [1], in test [2], in [3], in [4], in test [5] and in test [6] was more than 100 µM in each case. Further, the TGI in test [7] was more than 100 µM; in test [9] it was more than 100 µM; in test [10], more than 100 µM; in test [11], 33.7 µM; in test [12] it was more than 100 µM; in test [15], more than 100 µM. For the same molecule, the TGI in [18], in [16] and in [17] was more than 100 µM in each case.
As for `COCN(C)c1nc(N(C)C)nc(N(C)C)n1`, the TGI in test [1], in test [2], in test [3], in test [4], in [5] and in test [6] was more than 100 µM throughout. In addition, the TGI in test [7], in [9], in test [10], in test [11], in [12] and in test [15] was more than 100 µM throughout. Further, the TGI in [18], in test [16] and in test [17] was more than 100 µM throughout.
As to `COc1ccc(OC)c(NC(=O)C(=O)CC(=O)c2sc(-n3nc(-c4ccccc4)cc3-c3ccccc3)nc2C)c1`, the TGI in test [1], in test [2], in test [3], in [4], in test [5] and in test [6] was more than 100 µM each time. Moreover, the TGI in test [9], in [11], in test [12], in test [15], in test [18] and in [17] was more than 100 µM in each case.
Consider `C[C@]12CC[C@H](O)CC1=CC[C@@H]1C2CC[C@]2(C)C(=O)NC(=O)CC12` (some centres undefined), for which the TGI in test [1], in [2], in test [3], in test [4], in test [5] and in test [6] was more than 100 µM in each case. In addition, the TGI in test [7], in [9], in test [10], in test [11], in test [12] and in test [15] was more than 100 µM each time. For the same molecule, the TGI in test [18], in test [16] and in test [17] was more than 100 µM in each case.
